Test results published in ChEMBL document CHEMBL1157641, “Carbonic anhydrase inhibitors. Inhibition of mammalian isoforms I-XIV with a series of natural product polyphenols and phenolic acids” (Bioorg Med Chem, 2010).
pKi: −log10 of the molar value.

How the values were obtained:
Carbonic anhydrase 4 = Carbonic anhydrase 4 (Homo sapiens, UniProt P22748)
Description: Inhibition of human CA4 by stopped-flow CO2 hydration assay

Carbonic anhydrase 1 = Carbonic anhydrase 1 (Homo sapiens, UniProt P00915)
Description: Inhibition of human CA1 by stopped-flow CO2 hydration assay

Carbonic anhydrase 14 = Carbonic anhydrase 14 (Homo sapiens, UniProt Q9ULX7)
Carbonic anhydrase 14, sequence (Q9ULX7 whole entry): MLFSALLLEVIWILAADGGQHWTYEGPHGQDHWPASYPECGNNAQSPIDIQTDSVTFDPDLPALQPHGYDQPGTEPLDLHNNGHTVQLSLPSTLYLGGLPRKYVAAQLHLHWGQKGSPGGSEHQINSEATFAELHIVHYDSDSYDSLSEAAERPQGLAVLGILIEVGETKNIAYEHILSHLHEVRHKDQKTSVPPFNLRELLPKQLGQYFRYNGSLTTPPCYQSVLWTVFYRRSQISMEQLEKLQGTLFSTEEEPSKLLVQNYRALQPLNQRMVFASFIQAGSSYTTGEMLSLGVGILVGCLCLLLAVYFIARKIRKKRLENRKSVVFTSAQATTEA
Description: Inhibition of human CA14 by stopped-flow CO2 hydration assay

Carbonic anhydrase 2 = Carbonic anhydrase 2 (Homo sapiens, UniProt P00918)
Description: Inhibition of human CA2 by stopped-flow CO2 hydration assay

Carbonic anhydrase 9 = Carbonic anhydrase 9 (Homo sapiens, UniProt Q16790)
Description: Inhibition of human CA9 by stopped-flow CO2 hydration assay

[1] = molecular target: Carbonic anhydrase 5B, mitochondrial (Homo sapiens, UniProt Q9Y2D0)
Carbonic anhydrase 5B, mitochondrial, sequence (Q9Y2D0 whole entry): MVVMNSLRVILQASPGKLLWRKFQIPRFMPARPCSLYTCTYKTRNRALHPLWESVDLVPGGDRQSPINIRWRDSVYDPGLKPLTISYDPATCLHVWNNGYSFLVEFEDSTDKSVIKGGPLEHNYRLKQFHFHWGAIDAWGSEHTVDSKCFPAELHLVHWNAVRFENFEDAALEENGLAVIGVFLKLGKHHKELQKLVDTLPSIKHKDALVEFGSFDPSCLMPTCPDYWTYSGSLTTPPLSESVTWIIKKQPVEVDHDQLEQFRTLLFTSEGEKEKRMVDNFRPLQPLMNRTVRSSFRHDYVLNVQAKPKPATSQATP
Description: Inhibition of human CA5B by stopped-flow CO2 hydration assay

Carbonic anhydrase 12 = Carbonic anhydrase 12 (Homo sapiens, UniProt O43570)
Carbonic anhydrase 12, sequence (O43570 whole entry): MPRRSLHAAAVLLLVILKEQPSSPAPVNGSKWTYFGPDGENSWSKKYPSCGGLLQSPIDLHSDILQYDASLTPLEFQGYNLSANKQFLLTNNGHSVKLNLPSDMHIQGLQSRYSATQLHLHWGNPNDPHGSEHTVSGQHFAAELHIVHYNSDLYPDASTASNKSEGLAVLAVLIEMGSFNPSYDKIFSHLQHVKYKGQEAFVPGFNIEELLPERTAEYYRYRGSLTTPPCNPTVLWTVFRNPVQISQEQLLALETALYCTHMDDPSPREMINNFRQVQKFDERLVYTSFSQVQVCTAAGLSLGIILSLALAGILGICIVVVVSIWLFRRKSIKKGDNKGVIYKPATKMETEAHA
Description: Inhibition of human CA12 by stopped-flow CO2 hydration assay

Carbonic anhydrase 6 = Carbonic anhydrase 6 (Homo sapiens, UniProt P23280)
Carbonic anhydrase 6, sequence (P23280 whole entry): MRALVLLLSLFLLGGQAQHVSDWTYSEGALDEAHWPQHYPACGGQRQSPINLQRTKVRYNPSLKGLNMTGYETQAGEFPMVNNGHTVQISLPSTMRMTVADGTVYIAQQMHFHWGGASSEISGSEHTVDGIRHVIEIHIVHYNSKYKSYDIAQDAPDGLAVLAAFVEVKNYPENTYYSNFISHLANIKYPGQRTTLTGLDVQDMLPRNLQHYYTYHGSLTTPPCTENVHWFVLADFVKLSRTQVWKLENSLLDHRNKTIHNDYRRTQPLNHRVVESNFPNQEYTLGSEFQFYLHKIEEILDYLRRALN
Description: Inhibition of human CA6 by stopped-flow CO2 hydration assay

Carbonic anhydrase 7 = Carbonic anhydrase 7 (Homo sapiens, UniProt P43166)
Carbonic anhydrase 7, sequence (P43166 whole entry): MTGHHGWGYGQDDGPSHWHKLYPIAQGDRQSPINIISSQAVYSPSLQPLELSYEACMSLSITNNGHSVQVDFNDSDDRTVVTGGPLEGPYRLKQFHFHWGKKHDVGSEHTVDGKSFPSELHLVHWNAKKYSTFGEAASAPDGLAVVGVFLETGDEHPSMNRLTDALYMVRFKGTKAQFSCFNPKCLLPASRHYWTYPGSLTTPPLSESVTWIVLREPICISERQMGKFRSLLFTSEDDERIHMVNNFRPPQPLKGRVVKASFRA
Description: Inhibition of human CA7 by stopped-flow CO2 hydration assay

Carbonic anhydrase 13 = Carbonic anhydrase 13 (Mus musculus, UniProt Q9D6N1)
Carbonic anhydrase 13, sequence (Q9D6N1 whole entry): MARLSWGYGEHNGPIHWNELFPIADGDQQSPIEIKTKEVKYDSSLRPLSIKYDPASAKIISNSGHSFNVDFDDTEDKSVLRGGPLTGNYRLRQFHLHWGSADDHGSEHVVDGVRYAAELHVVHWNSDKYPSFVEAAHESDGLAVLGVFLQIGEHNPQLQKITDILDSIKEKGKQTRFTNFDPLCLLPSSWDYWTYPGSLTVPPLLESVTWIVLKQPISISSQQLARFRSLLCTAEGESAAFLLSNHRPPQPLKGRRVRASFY
Description: Inhibition of mouse CA13 by stopped-flow CO2 hydration assay

Carbonic anhydrase 3 = Carbonic anhydrase 3 (Homo sapiens, UniProt P07451)
Carbonic anhydrase 3, sequence (P07451 whole entry): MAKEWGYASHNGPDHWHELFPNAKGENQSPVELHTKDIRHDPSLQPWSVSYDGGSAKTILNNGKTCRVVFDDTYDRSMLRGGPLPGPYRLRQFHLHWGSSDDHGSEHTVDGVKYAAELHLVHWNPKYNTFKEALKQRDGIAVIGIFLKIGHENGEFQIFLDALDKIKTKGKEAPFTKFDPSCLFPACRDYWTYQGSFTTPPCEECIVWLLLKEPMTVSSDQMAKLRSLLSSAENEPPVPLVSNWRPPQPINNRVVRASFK
Description: Inhibition of human CA3 by stopped-flow CO2 hydration assay

[2] = molecular target: Carbonic anhydrase 5A, mitochondrial (Homo sapiens, UniProt P35218)
Carbonic anhydrase 5A, mitochondrial, sequence (P35218 whole entry): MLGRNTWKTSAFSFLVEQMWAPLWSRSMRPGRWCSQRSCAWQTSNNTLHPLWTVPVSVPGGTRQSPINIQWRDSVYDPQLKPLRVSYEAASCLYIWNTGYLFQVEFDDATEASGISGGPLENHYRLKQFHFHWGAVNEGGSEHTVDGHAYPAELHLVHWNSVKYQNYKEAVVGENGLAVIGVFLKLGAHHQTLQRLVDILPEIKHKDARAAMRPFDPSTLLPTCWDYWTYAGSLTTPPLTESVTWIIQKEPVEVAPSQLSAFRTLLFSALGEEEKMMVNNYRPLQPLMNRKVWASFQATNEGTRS
Description: Inhibition of human CA5A by stopped-flow CO2 hydration assay

Carbonic anhydrase 1, sequence (P00915 whole entry): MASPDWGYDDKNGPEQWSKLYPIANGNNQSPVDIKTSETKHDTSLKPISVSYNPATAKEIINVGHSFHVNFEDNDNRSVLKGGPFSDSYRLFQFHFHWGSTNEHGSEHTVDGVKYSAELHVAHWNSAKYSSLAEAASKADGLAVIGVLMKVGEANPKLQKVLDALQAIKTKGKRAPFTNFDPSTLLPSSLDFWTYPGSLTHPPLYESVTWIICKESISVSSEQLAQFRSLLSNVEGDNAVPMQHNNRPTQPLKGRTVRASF
Carbonic anhydrase 4, sequence (P22748 whole entry): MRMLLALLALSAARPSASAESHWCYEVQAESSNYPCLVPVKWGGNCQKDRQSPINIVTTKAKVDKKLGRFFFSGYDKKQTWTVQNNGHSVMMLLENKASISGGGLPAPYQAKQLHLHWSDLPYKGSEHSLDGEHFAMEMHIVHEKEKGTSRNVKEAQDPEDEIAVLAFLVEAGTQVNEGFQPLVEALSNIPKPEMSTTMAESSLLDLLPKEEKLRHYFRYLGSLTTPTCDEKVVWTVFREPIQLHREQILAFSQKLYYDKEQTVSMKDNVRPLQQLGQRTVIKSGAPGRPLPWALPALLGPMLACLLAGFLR

| Compound | pKi (Carbonic anhydrase 4) | pKi (Carbonic anhydrase 1) | pKi (Carbonic anhydrase 14) | pKi (Carbonic anhydrase 2) | pKi (Carbonic anhydrase 9) | pKi [1] | pKi (Carbonic anhydrase 12) | pKi (Carbonic anhydrase 6) | pKi (Carbonic anhydrase 7) | pKi (Carbonic anhydrase 13) | pKi (Carbonic anhydrase 3) | pKi [2] |
| --- | --- | --- | --- | --- | --- | --- | --- | --- | --- | --- | --- | --- |
| COc1cc(/C=C/C(=O)O)ccc1O [FERULATE] | 4.97 | 5.54 | 5.03 | 5.62 | 5.01 | 4.98 | 5.01 | 5.07 | 5.13 | 4.91 | 4.95 | 5.15 |
| O=c1c(O)c(-c2ccc(O)c(O)c2)oc2cc(O)cc(O)c12 [QUERCETIN] | 5.10 | 5.57 | 5.27 | 5.60 | 5.15 | 4.92 | 5.03 | 5.21 | 5.32 | 5.04 | 5.09 | 5.17 |
| O=C(O)c1cc(O)c(O)c(O)c1 [GALLIC ACID] | 5.01 | 5.49 | 5.15 | 5.65 | 5.16 | 5.00 | 5.11 | 5.21 | 5.22 | 5.01 | 5.13 | 5.39 |

Further compounds by rising pKi (Carbonic anhydrase 4), results first:

| pKi (Carbonic anhydrase 4) | pKi (Carbonic anhydrase 1) | pKi (Carbonic anhydrase 14) | pKi (Carbonic anhydrase 2) | pKi (Carbonic anhydrase 9) | pKi [1] | pKi (Carbonic anhydrase 12) | pKi (Carbonic anhydrase 6) | pKi (Carbonic anhydrase 7) | pKi (Carbonic anhydrase 13) | pKi (Carbonic anhydrase 3) | pKi [2] | Compound |
| --- | --- | --- | --- | --- | --- | --- | --- | --- | --- | --- | --- | --- |
| 4.97 | 5.38 | 5.04 | 5.50 | 5.09 | 4.45 | 5.05 | 5.12 | 5.11 | 4.96 | 5.07 | 5.20 | COc1cc(C(=O)O)cc(OC)c1O [SYRINGIC ACID] |
| 5.02 | 5.97 | 5.18 | 6.01 | 5.27 | 5.11 | 5.10 | 5.17 | 5.28 | 5.00 | 5.12 | 5.22 | O=C(O)/C=C/c1ccc(O)cc1 [COUMARIC ACID] |
| 5.04 | 5.63 | 5.05 |  | 5.03 | 4.90 | 5.00 | 5.15 | 5.20 | 4.99 | 4.98 | 5.12 | O=c1oc2c(O)c(O)cc3c(=O)oc4c(O)c(O)cc1c4c23 [ELLAGIC ACID] |
| 5.11 | 6.04 | 5.21 |  | 5.43 |  | 5.20 | 5.24 | 5.39 | 5.11 | 5.18 | 5.44 | O=C(O)c1ccc(O)cc1 [PARABEN] |
